Experimental data taken from patent EP0128338A1, “Silver pseudomonate, compositions containing it and its use in treating pseudomonal infections” (BEECHAM GROUP PLC, priority 1983, dated 1984).

System: Pseudomonas aeruginosa
Assay: Minimum inhibitory concentrations (MICs) against 20 strains of Pseudomonas aeruginosa in Blood Agar Base
Assay type: cell-based
Description: • a) The minimum inhibitory concentrations (MICs) of silver pseudomonate and sodium pseudomonate were determined against 20 strains of Pseudomonas aeruginosa in Blood Agar Base. […] Typical results are presented in Table 2. [formula] [formula]

Q: What does the source list for Silver Pseudomonate A?
A: minimum inhibitory concentrations (MICs) (20 strains of Pseudomonas aeruginosa, Blood Agar Base, comparison in words): more active than sodium pseudomonate against all strains tested; activity against Pseudomonas organisms (general statement in words): active
